Measured values as given in patent US10265327B2, “V1A antagonists to treat phase shift sleep disorders” (Hoffmann-La Roche Inc., priority 2013, dated 2019).
Like-named read-outs stand apart in the source and are kept apart here.

Tests used:
[1] = biological target: T1, human V1a receptor (hV1a) (Homo sapiens, UniProt P37288); test: Radioligand binding assay (3H-AVP, SPA), human V1a; conditions: 1 nM 3H-AVP
T1 construct: expressed in transfected cells; host or cells: HEK cells, transient transfection; membrane preparation
T1 sequence (P37288 whole entry): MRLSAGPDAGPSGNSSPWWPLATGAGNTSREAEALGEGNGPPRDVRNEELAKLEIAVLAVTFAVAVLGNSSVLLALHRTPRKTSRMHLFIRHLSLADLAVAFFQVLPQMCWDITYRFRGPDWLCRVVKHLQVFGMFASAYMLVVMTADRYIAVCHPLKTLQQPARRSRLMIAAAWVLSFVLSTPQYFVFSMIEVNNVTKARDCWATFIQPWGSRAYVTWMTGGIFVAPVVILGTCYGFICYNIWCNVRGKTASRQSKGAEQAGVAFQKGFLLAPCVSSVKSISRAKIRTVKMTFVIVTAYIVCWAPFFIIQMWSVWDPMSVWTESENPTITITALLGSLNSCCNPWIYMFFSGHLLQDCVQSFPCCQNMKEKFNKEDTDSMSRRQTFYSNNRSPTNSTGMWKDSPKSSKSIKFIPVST
Description: (§1) The test compound was initially dissolved in DMSO at a concentration of 10 mM. Subsequent dilutions were made in assay buffer with a maximum final concentration of 0.2% DMSO.
(§2) Recombinant vasopressin V1a (human: hV1a; mouse: mV1a), V1b (human: hV1b) were independently expressed in human embryonic kidney (HEK) cells using transient transfection. The cell membranes expressing the various receptors were prepared by homogenizing (using Polytron homogenizer) the cell culture pellet in lysis buffer (50 mM HEPES, 1 mM EDTA, 10 mM MgCl2, pH 7.4 with protease inhibitors), then centrifuging the resulting suspension at 500 g for 20 min at 4° C. The supernatant was subsequently re-centrifuged at 43,000 g for 1 hour at 4° C. […] The concentration of protein was determined, and the membranes were aliquoted and stored at −80° C. until further use.
(§3) All radioligand binding assays were carried out in 96-well plates in the presence of 1 nM ^3H-AVP (vasopressin) radioligand, and 10 concentrations of test compound (ranging from 27 μM-1 nM or 2.7 μM-0.1 nM for hV1a binding). […] Filtration assays were terminated by rapid filtration under vacuum through GF/C filters, presoaked for 5 min with buffer B containing Tris 50 mM, MgCl2 5 mM, 0.1% BSA (pH 7.4), followed by 5×0.4 ml washes of ice-cold buffer B. For both SPA and filtration plates, bound ligand was determined using a Packard Topcount scintillation counter. […]

[2] = biological target: T2, human V1b receptor (hV1b) (Homo sapiens, UniProt P47901); test: Radioligand binding assay (3H-AVP, SPA), human V1b; conditions: (n); 1 nM 3H-AVP; read-out: pKi V1b Human (converted)
T2 construct: expressed in transfected cells; host or cells: HEK cells, transient transfection; membrane preparation
T2 sequence (P47901 1-424): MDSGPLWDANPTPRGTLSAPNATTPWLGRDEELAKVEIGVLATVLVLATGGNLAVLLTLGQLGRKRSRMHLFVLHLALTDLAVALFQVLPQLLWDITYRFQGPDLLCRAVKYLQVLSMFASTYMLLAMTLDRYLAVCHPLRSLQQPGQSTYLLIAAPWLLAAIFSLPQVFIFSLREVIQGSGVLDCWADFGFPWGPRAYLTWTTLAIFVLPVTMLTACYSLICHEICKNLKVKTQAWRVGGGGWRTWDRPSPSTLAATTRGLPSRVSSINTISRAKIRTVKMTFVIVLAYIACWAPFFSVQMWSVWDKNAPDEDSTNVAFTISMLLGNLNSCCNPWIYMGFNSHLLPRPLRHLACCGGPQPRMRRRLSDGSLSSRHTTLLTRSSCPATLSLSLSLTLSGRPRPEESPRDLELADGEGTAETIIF
Description: as §1, §2, §3

Work on `CN1Cc2cc(Cl)ccc2-n2c(nnc2[C@H]2CC[C@H](Oc3ccccn3)CC2)C1` [Example 1, trans-8-chloro-5-methyl-1-(4-pyridin-2-yloxycyclohexyl)-4,6-dihydro-[1,2,4]triazolo[4,3-a][1,4]benzodiazepine] yielded a Ki ([1]; Ki ± SEM (n), read-out: Ki V1a Human) of 0.7 ± 0.1 nM, a Ki ([1]; pKi ± SEM (n), read-out: pKi V1a Human (converted)) of 0.776 nM and a Ki [2] greater than 31.6 µM.
